Experimental data published in patent US9963442B2, “Pyridones as herbicides” (E I DU PONT DE NEMOURS AND COMPANY, priority 2014, dated 2018).

Experiments:
Format in all cases: in vivo
[1] = system: chickweed (common chickweed, Stellaria media); assay: Test C postemergence; conditions: scale 0 to 100, 0 is no effect, 100 is complete control
Description: (§1) Seeds of plant species selected from blackgrass (Alopecurus myosuroides), Italian ryegrass (Lolium multiflorum), winter wheat (Triticum aestivum), galium (catchweed bedstraw, Galium aparine), corn (Zea mays), large (Lg) crabgrass (Digitaria sanguinalis), giant foxtail (Setaria faberii), johnsongrass (Sorghum halepense), lambsquarters (Chenopodium album), morningglory (Ipomoea coccinea), yellow nutsedge (Cyperus esculentus), pigweed (Amaranthus retroflexus), ragweed (common ragweed, Ambrosia elatior), soybean (Glycine max), barnyardgrass (Echinochloa crus-galli), oilseed rape (Brassica napus), waterhemp (common waterhemp, Amaranthus rudis), and velvetleaf (Abutilon theophrasti) were planted into a blend of loam soil and sand and treated preemergence with test chemicals formulated in a non-phytotoxic solvent mixture which included a surfactant. At the same time, plants selected from these crop and weed species and also chickweed (common chickweed, Stellaria media), kochia (Kochia scoparia), and wild oat (Avena fatua), were planted in pots containing Sunshine Redi-Earth® planting medium comprising spaghnum peat moss, vermiculite, starter nutrients and dolomitic limestone and treated with postemergence applications of test chemicals formulated in the same manner. Plants ranged in height from 2 to 18 cm (1- to 4-leaf stage) for postemergence treatments. Treated plants and controls were maintained in a greenhouse for 13 to 15 days, after which time all species were compared to controls and visually evaluated. Plant response ratings, summarized in Table C, are based on a scale of 0 to 100 where 0 is no effect and 100 is complete control. A dash (-) response means no test result.

[2] = system: barnyardgrass (Echinochloa crus-galli); assay: Test C postemergence; conditions: scale 0 to 100, 0 is no effect, 100 is complete control
Description: as §1

wild oat (Avena fatua) = assay: Test C postemergence; conditions: scale 0 to 100, 0 is no effect, 100 is complete control
Description: as §1

corn (Zea mays) = assay: Test C postemergence; conditions: scale 0 to 100, 0 is no effect, 100 is complete control
Description: as §1

soybean (Glycine max) = assay: Test C postemergence; conditions: scale 0 to 100, 0 is no effect, 100 is complete control
Description: as §1

[3] = system: galium (catchweed bedstraw, Galium aparine); assay: Test C postemergence; conditions: scale 0 to 100, 0 is no effect, 100 is complete control
Description: as §1

kochia (Kochia scoparia) = assay: Test C postemergence; conditions: scale 0 to 100, 0 is no effect, 100 is complete control
Description: as §1

[4] = system: Italian ryegrass (Lolium multiflorum); assay: Test C postemergence; conditions: scale 0 to 100, 0 is no effect, 100 is complete control
Description: as §1

[5] = system: morningglory (Ipomoea coccinea); assay: Test C postemergence; conditions: scale 0 to 100, 0 is no effect, 100 is complete control
Description: as §1

[6] = system: pigweed (Amaranthus retroflexus); assay: Test C postemergence; conditions: scale 0 to 100, 0 is no effect, 100 is complete control
Description: as §1

[7] = system: yellow nutsedge (Cyperus esculentus); assay: Test C postemergence; conditions: scale 0 to 100, 0 is no effect, 100 is complete control
Description: as §1

[8] = system: velvetleaf (Abutilon theophrasti); assay: Test C postemergence; conditions: scale 0 to 100, 0 is no effect, 100 is complete control
Description: as §1

[9] = system: ducksalad (Heteranthera limosa); assay: Test B flooded paddy test; parameters: key: 0 = no effect, 100 = complete control; conditions: Flood, 250 g ai/ha applied to paddy water at 2-leaf stage; visually evaluated after 13 to 15 days; scale 0 (no effect) to 100 (complete control)
Protocol: (§2) Plant species in the flooded paddy test selected from rice (Oryza sativa), sedge, umbrella (small-flower umbrella sedge, Cyperus difformis), ducksalad (Heteranthera limosa), and barnyardgrass (Echinochloa crus-galli) were grown to the 2-leaf stage for testing. At time of treatment, test pots were flooded to 3 cm above the soil surface, treated by application of test compounds directly to the paddy water, and then maintained at that water depth for the duration of the test. Treated plants and controls were maintained in a greenhouse for 13 to 15 days, after which time all species were compared to controls and visually evaluated. Plant response ratings, summarized in Table B, are based on a scale of 0 to 100 where 0 is no effect and 100 is complete control. A dash (-) response means no test result.

[10] = system: sedge, umbrella (small-flower umbrella sedge, Cyperus difformis); assay: Test B flooded paddy test; parameters: key: 0 = no effect, 100 = complete control; conditions: Flood, 250 g ai/ha applied to paddy water at 2-leaf stage; visually evaluated after 13 to 15 days; scale 0 (no effect) to 100 (complete control)
Protocol: as §2

[11] = system: barnyardgrass (Echinochloa crus-galli); assay: Test B flooded paddy test; parameters: key: 0 = no effect, 100 = complete control; conditions: Flood, 250 g ai/ha applied to paddy water at 2-leaf stage; visually evaluated after 13 to 15 days; scale 0 (no effect) to 100 (complete control)
Protocol: as §2

rice (Oryza sativa) = assay: Test B flooded paddy test; parameters: key: 0 = no effect, 100 = complete control; conditions: Flood, 250 g ai/ha applied to paddy water at 2-leaf stage; visually evaluated after 13 to 15 days; scale 0 (no effect) to 100 (complete control)
Protocol: as §2

O=c1cccc(Oc2ncc(Cl)cn2)n1-c1ccc(C(F)(F)F)cn1 [Compound 7]
Plant response rating, Chickweed ([1]; 16 g ai/ha): 0 | Plant response rating, Chickweed ([1]; 31 g ai/ha): 20 | Plant response rating, Chickweed ([1]; 62 g ai/ha): 35 | Plant response rating, Chickweed ([1]; 125 g ai/ha): 55 | Plant response rating, Barnyardgrass ([2]; 16 g ai/ha): 5 | Plant response rating, Barnyardgrass ([2]; 31 g ai/ha): 5 | Plant response rating, Barnyardgrass ([2]; 62 g ai/ha): 5 | Plant response rating, Barnyardgrass ([2]; 125 g ai/ha): 10 | Plant response rating, Oat, Wild (wild oat (Avena fatua); 16 g ai/ha): 0 | Plant response rating, Oat, Wild (wild oat (Avena fatua); 31 g ai/ha): 0 | Plant response rating, Oat, Wild (wild oat (Avena fatua); 62 g ai/ha): 5 | Plant response rating, Oat, Wild (wild oat (Avena fatua); 125 g ai/ha): 5 | Plant response rating, Corn (corn (Zea mays); 16 g ai/ha): 10 | Plant response rating, Corn (corn (Zea mays); 31 g ai/ha): 10 | Plant response rating, Corn (corn (Zea mays); 62 g ai/ha): 20 | Plant response rating, Corn (corn (Zea mays); 125 g ai/ha): 15 | Plant response rating, Soybean (soybean (Glycine max); 16 g ai/ha): 50 | Plant response rating, Soybean (soybean (Glycine max); 31 g ai/ha): 40 | Plant response rating, Soybean (soybean (Glycine max); 62 g ai/ha): 50 | Plant response rating, Soybean (soybean (Glycine max); 125 g ai/ha): 55 | Plant response rating, Galium ([3]; 16 g ai/ha): 45 | Plant response rating, Galium ([3]; 31 g ai/ha): 50 | Plant response rating, Galium ([3]; 62 g ai/ha): 60 | Plant response rating, Galium ([3]; 125 g ai/ha): 75 | Plant response rating, Kochia (kochia (Kochia scoparia); 16 g ai/ha): 10 | Plant response rating, Kochia (kochia (Kochia scoparia); 31 g ai/ha): 50 | Plant response rating, Kochia (kochia (Kochia scoparia); 62 g ai/ha): 70 | Plant response rating, Kochia (kochia (Kochia scoparia); 125 g ai/ha): 85 | Plant response rating, Ryegrass, Italian ([4]; 16 g ai/ha): 0 | Plant response rating, Ryegrass, Italian ([4]; 31 g ai/ha): 5 | Plant response rating, Ryegrass, Italian ([4]; 62 g ai/ha): 5 | Plant response rating, Ryegrass, Italian ([4]; 125 g ai/ha): 10 | Plant response rating, Morningglory ([5]; 16 g ai/ha): 20 | Plant response rating, Morningglory ([5]; 31 g ai/ha): 35 | Plant response rating, Morningglory ([5]; 62 g ai/ha): 40 | Plant response rating, Morningglory ([5]; 125 g ai/ha): 45 | Plant response rating, Pigweed ([6]; 16 g ai/ha): 70 | Plant response rating, Pigweed ([6]; 31 g ai/ha): 65 | Plant response rating, Pigweed ([6]; 62 g ai/ha): 85 | Plant response rating, Pigweed ([6]; 125 g ai/ha): 80 | Plant response rating, Nutsedge, Yellow ([7]; 16 g ai/ha): 0 | Plant response rating, Nutsedge, Yellow ([7]; 31 g ai/ha): 5 | Plant response rating, Nutsedge, Yellow ([7]; 62 g ai/ha): 5 | Plant response rating, Nutsedge, Yellow ([7]; 125 g ai/ha): 10 | Plant response rating, Velvetleaf ([8]; 16 g ai/ha): 25 | Plant response rating, Velvetleaf ([8]; 31 g ai/ha): 35 | Plant response rating, Velvetleaf ([8]; 62 g ai/ha): 40 | Plant response rating, Velvetleaf ([8]; 125 g ai/ha): 65 | Plant response rating, Ducksalad [9]: 100 | Plant response rating, Sedge, Umbrella [10]: 90 | Plant response rating, Barnyardgrass [11]: 0 | Plant response rating, Rice (rice (Oryza sativa)): 0

O=c1cccc(Oc2ncc(Cl)cn2)n1-c1ccc(C(F)(F)F)cc1 [Compound 10]
Plant response rating, Chickweed ([1]; 16 g ai/ha): 70 | Plant response rating, Chickweed ([1]; 31 g ai/ha): 30 | Plant response rating, Chickweed ([1]; 62 g ai/ha): 70 | Plant response rating, Chickweed ([1]; 125 g ai/ha): 80 | Plant response rating, Barnyardgrass ([2]; 16 g ai/ha): 5 | Plant response rating, Barnyardgrass ([2]; 31 g ai/ha): 10 | Plant response rating, Barnyardgrass ([2]; 62 g ai/ha): 25 | Plant response rating, Barnyardgrass ([2]; 125 g ai/ha): 65 | Plant response rating, Oat, Wild (wild oat (Avena fatua); 16 g ai/ha): 0 | Plant response rating, Oat, Wild (wild oat (Avena fatua); 31 g ai/ha): 5 | Plant response rating, Oat, Wild (wild oat (Avena fatua); 62 g ai/ha): 15 | Plant response rating, Oat, Wild (wild oat (Avena fatua); 125 g ai/ha): 25 | Plant response rating, Corn (corn (Zea mays); 16 g ai/ha): 20 | Plant response rating, Corn (corn (Zea mays); 31 g ai/ha): 15 | Plant response rating, Corn (corn (Zea mays); 62 g ai/ha): 25 | Plant response rating, Corn (corn (Zea mays); 125 g ai/ha): 25 | Plant response rating, Soybean (soybean (Glycine max); 16 g ai/ha): 40 | Plant response rating, Soybean (soybean (Glycine max); 31 g ai/ha): 40 | Plant response rating, Soybean (soybean (Glycine max); 62 g ai/ha): 65 | Plant response rating, Soybean (soybean (Glycine max); 125 g ai/ha): 55 | Plant response rating, Galium ([3]; 16 g ai/ha): 45 | Plant response rating, Galium ([3]; 31 g ai/ha): 50 | Plant response rating, Galium ([3]; 62 g ai/ha): 75 | Plant response rating, Galium ([3]; 125 g ai/ha): 80 | Plant response rating, Kochia (kochia (Kochia scoparia); 16 g ai/ha): 85 | Plant response rating, Kochia (kochia (Kochia scoparia); 31 g ai/ha): 90 | Plant response rating, Kochia (kochia (Kochia scoparia); 62 g ai/ha): 90 | Plant response rating, Kochia (kochia (Kochia scoparia); 125 g ai/ha): 95 | Plant response rating, Ryegrass, Italian ([4]; 16 g ai/ha): 5 | Plant response rating, Ryegrass, Italian ([4]; 31 g ai/ha): 5 | Plant response rating, Ryegrass, Italian ([4]; 62 g ai/ha): 10 | Plant response rating, Ryegrass, Italian ([4]; 125 g ai/ha): 20 | Plant response rating, Morningglory ([5]; 16 g ai/ha): 50 | Plant response rating, Morningglory ([5]; 31 g ai/ha): 55 | Plant response rating, Morningglory ([5]; 62 g ai/ha): 70 | Plant response rating, Morningglory ([5]; 125 g ai/ha): 75 | Plant response rating, Pigweed ([6]; 16 g ai/ha): 70 | Plant response rating, Pigweed ([6]; 31 g ai/ha): 90 | Plant response rating, Pigweed ([6]; 62 g ai/ha): 80 | Plant response rating, Pigweed ([6]; 125 g ai/ha): 90 | Plant response rating, Nutsedge, Yellow ([7]; 16 g ai/ha): 5 | Plant response rating, Nutsedge, Yellow ([7]; 31 g ai/ha): 10 | Plant response rating, Nutsedge, Yellow ([7]; 62 g ai/ha): 15 | Plant response rating, Nutsedge, Yellow ([7]; 125 g ai/ha): 20 | Plant response rating, Velvetleaf ([8]; 16 g ai/ha): 15 | Plant response rating, Velvetleaf ([8]; 31 g ai/ha): 35 | Plant response rating, Velvetleaf ([8]; 62 g ai/ha): 60 | Plant response rating, Velvetleaf ([8]; 125 g ai/ha): 65 | Plant response rating, Ducksalad [9]: 65 | Plant response rating, Sedge, Umbrella [10]: 90 | Plant response rating, Barnyardgrass [11]: 30 | Plant response rating, Rice (rice (Oryza sativa)): 20
